Data published in ChEMBL document CHEMBL3045917, “Insecticidal cyclodepsipeptides from Beauveria felina” (2011).
Values after ≈ are worked out from the molar mass of the structure shown. Where a SMILES comes first, the peptide text is derived from it. [ ]: non-standard residue; d: D form. ξ: configuration not given here. ξLac(3-iPr) = CC(C)CC(O)C(=O)O; NMeV = CN[C@H](C(=O)O)C(C)C; βAla = NCCC(=O)O

Tests used:
Sitophilus = experiment: Insecticidal activity against Sitophilus spp. assessed as mortality after 5 days; assay type: functional; settings: 120 h, read-out: LD50 (the source's name)
Callosobruchus maculatus = experiment: Insecticidal activity against Callosobruchus maculatus assessed as mortality after 5 days; assay type: functional; settings: 120 h, read-out: LD50 (the source's name)

| SMILES | LC50 (Sitophilus) | LC50 (Callosobruchus maculatus) |
| --- | --- | --- |
| CC(C)CC1OC(=O)CCNC(=O)[C@H](C(C)C)N(C)C(=O)[C@H](C(C)C)N(C)C(=O)[C@H](Cc2ccccc2)NC(=O)[C@@H]2CCCN2C1=O (stereo partly drawn) [ISARIDIN E] (cyclo(F[NMeV][NMeV][βAla][ξLac(3-iPr)]P)) | 300 µg/mL (≈ 457 µM) | 220 µg/mL (≈ 335 µM) |
| CCCCC(C)C1CC(=O)NCC(=O)N[C@@H](C(C)C)C(=O)N[C@H](CC(C)C)C(=O)N[C@@H](C)C(=O)N[C@H](C(C)C)C(=O)O1 (stereo partly drawn) [ISO-ISARIIN B] | 10 µg/mL (≈ 16.8 µM) |  |
